This experiment has as its system spores of Bacillus cereus. It counts as cell-based.

Where “and” joins values, the source holds several entries; their conditions need not be identical. Identical values can stand only once.

As for `C[C@H](N)C(=O)O` [L-alanine], the CFU was 72 and 85. Besides, the “induction of spore germination” value (control samples A and B) is “did induce germination”.
